How the values were obtained:
[1] = target: T1, Neuronal acetylcholine receptor; alpha3/beta4 (Homo sapiens, UniProt P30926+P32297); experiment: Displacement of [3H]epibatidine from alpha3beta4 nicotinic receptor expressed in human HEK293 cells; type: cell-based
[2] = Agonist activity at human alpha6/4beta4 nicotinic receptor expressed in human HEK cells assessed as intracellular calcium […] by FLIPR; type: functional, cell-based, HEK293
[3] = Displacement of [3H]epibatidine from alpha6/4beta4 nicotinic receptor expressed in human HEK293 cells; type: cell-based
[4] = target: T1, Neuronal acetylcholine receptor; alpha3/beta4; experiment: Agonist activity at alpha3beta4 nicotinic receptor expressed in human HEK cells assessed as intracellular calcium […] by FLIPR relative to control; type: functional, cell-based; settings: HEK293
[5] = target: Neuronal acetylcholine receptor; alpha4/beta2 (Homo sapiens, UniProt P17787+P43681); experiment: Displacement of [3H]epibatidine from alpha4beta2 nicotinic receptor expressed in human HEK293 cells; type: cell-based
Chain of Neuronal acetylcholine receptor; alpha4/beta2 (P17787 whole entry): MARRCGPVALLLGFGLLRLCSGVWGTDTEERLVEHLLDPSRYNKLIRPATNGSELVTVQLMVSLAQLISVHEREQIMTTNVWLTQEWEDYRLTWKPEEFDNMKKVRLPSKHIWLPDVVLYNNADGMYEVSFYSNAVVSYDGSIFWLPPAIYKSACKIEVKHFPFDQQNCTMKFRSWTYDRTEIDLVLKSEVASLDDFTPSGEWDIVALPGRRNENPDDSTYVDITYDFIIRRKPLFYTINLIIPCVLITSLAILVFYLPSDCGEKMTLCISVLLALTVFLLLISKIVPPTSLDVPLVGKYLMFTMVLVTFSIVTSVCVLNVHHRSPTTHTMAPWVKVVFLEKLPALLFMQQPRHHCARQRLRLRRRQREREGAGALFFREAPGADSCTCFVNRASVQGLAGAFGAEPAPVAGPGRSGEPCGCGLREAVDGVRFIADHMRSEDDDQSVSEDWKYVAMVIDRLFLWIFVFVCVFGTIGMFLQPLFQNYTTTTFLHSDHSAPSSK
Chain of Neuronal acetylcholine receptor; alpha4/beta2 (P43681 whole entry): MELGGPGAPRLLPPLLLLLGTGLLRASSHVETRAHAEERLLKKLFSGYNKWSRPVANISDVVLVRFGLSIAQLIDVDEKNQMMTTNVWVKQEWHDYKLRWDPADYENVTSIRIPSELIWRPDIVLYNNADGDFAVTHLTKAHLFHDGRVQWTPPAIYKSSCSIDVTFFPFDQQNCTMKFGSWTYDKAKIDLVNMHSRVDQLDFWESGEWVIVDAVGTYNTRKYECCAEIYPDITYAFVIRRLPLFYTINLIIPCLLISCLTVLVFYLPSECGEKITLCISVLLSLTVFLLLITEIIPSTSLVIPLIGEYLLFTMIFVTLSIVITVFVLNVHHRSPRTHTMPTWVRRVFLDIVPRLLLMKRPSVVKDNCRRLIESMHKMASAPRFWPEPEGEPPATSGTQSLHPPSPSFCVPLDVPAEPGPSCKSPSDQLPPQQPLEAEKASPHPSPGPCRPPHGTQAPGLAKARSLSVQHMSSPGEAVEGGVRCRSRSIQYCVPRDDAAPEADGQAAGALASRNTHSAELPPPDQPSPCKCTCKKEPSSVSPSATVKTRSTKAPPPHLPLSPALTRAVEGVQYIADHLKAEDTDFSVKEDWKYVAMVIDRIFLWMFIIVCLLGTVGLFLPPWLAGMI

[6] = target: Acetylcholine receptor; alpha1/beta1/delta/gamma (Homo sapiens, UniProt P02708+P07510+P11230+Q07001); experiment: Binding affinity to alpha-1-beta-gamma-delta nicotinic receptor; type: protein-complex assay
Chain of Acetylcholine receptor; alpha1/beta1/delta/gamma (P02708 whole entry): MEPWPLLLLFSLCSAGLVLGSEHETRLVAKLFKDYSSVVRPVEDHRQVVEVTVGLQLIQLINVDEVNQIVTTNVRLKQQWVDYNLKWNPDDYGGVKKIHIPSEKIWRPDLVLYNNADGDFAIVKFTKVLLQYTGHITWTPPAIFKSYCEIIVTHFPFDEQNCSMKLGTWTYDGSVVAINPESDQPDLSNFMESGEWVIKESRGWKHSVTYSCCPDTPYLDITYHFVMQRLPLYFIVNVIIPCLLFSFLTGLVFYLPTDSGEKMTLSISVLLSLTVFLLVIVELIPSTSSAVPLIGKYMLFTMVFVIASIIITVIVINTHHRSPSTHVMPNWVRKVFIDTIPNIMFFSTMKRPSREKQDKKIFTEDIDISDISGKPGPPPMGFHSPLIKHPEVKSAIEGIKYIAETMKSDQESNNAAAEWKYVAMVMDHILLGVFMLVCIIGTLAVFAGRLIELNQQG
Chain of Acetylcholine receptor; alpha1/beta1/delta/gamma (P07510 whole entry): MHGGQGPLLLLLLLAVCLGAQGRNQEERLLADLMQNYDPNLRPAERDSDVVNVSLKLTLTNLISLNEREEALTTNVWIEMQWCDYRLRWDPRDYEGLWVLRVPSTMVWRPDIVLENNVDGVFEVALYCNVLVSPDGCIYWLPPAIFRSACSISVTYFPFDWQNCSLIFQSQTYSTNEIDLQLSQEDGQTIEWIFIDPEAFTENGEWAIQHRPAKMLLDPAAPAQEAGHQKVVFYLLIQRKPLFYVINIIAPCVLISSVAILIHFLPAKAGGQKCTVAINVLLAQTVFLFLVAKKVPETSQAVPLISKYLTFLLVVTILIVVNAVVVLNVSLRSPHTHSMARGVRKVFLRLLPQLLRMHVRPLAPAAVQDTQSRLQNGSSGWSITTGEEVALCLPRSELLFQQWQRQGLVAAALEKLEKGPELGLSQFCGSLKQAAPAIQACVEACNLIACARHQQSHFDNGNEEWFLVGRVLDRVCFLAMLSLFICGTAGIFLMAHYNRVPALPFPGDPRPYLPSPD
Chain of Acetylcholine receptor; alpha1/beta1/delta/gamma (P11230 whole entry): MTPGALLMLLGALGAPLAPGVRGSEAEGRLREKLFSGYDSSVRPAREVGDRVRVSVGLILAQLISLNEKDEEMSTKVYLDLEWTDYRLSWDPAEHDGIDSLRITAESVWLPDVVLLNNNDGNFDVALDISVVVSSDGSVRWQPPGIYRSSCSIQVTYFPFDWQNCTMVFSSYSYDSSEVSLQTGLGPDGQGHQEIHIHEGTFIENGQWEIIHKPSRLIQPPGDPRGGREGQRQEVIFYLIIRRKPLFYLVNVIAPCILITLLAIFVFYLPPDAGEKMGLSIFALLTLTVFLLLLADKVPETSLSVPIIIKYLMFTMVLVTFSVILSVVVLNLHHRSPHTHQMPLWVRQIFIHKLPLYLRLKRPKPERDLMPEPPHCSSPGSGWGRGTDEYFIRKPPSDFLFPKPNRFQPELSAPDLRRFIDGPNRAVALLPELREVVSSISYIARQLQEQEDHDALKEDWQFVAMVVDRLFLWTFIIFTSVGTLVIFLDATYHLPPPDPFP
Chain of Acetylcholine receptor; alpha1/beta1/delta/gamma (Q07001 whole entry): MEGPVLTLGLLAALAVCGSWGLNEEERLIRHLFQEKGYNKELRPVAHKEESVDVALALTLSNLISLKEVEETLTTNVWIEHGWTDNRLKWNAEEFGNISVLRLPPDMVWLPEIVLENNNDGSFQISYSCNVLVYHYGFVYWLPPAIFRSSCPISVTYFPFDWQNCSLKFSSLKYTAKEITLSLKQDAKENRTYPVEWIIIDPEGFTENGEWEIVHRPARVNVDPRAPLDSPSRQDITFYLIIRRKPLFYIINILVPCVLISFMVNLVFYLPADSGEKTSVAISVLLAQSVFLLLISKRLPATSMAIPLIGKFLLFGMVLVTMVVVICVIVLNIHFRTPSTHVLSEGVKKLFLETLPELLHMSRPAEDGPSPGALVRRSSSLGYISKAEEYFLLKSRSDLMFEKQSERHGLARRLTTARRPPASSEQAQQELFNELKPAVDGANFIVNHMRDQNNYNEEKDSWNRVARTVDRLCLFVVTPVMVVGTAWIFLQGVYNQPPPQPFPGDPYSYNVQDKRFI

[7] = Apparent permeability from apical to basolateral side of MDCK cells; type: ADME, cell-based, Canis lupus familiaris; settings: dog
[8] = test system: human MDR (P-glycoprotein); experiment: Efflux ratio of permeability from basolateral to apical side over apical to basolateral side of MDCK cells expressing human MDR gene; type: ADME, cell-based, Canis lupus familiaris; settings: dog, MDCK-MDR1
[9] = target: Neuronal acetylcholine receptor subunit alpha-7 (Homo sapiens, UniProt P36544); experiment: Displacement of [3H]epibatidine from alpha7 nicotinic receptor expressed in human HEK293 cells; type: cell-based
Chain of Neuronal acetylcholine receptor subunit alpha-7 (P36544 whole entry): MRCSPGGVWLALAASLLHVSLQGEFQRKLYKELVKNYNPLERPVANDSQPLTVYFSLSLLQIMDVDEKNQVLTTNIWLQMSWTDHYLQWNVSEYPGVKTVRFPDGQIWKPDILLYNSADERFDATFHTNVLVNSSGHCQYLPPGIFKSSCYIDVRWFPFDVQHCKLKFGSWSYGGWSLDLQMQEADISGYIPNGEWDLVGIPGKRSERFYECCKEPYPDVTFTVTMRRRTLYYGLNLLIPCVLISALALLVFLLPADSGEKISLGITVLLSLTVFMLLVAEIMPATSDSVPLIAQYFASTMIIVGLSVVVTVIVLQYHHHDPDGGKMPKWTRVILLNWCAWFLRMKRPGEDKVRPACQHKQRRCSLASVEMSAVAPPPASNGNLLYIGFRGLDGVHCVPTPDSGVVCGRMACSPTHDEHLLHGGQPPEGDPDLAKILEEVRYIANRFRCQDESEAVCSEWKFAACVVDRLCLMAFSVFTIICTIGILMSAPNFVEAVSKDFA

[10] = target: T1, Neuronal acetylcholine receptor; alpha3/beta4; experiment: Agonist activity at alpha3beta4 nicotinic receptor expressed in human HEK cells assessed as intracellular calcium efflux by FLIPR
[11] = target: Voltage-gated inwardly rectifying potassium channel KCNH2 (Homo sapiens, UniProt Q12809); experiment: Displacement of [3H]dofetilide from human ERG expressed in HEK293 cells; type: cell-based
[12] = Agonist activity at human alpha6/4beta4 nicotinic receptor expressed in human HEK cells assessed as intracellular calcium […] by FLIPR relative to control; type: functional, HEK293
[13] = Homo sapiens, HEK293, read-out: EC50

T1 sequence (P30926 whole entry): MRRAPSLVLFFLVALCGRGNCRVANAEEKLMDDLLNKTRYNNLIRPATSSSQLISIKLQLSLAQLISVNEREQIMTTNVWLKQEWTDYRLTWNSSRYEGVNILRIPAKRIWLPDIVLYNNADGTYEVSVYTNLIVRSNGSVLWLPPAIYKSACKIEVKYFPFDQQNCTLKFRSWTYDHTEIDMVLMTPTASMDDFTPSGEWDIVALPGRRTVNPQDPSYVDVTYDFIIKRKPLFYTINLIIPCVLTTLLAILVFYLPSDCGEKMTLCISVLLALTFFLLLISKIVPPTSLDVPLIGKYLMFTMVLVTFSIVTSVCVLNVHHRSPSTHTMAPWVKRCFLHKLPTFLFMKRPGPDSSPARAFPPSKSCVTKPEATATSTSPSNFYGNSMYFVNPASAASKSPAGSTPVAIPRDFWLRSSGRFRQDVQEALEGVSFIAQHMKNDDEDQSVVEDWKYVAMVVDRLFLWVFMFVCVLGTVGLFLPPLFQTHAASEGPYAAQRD
T1 sequence (P32297 whole entry): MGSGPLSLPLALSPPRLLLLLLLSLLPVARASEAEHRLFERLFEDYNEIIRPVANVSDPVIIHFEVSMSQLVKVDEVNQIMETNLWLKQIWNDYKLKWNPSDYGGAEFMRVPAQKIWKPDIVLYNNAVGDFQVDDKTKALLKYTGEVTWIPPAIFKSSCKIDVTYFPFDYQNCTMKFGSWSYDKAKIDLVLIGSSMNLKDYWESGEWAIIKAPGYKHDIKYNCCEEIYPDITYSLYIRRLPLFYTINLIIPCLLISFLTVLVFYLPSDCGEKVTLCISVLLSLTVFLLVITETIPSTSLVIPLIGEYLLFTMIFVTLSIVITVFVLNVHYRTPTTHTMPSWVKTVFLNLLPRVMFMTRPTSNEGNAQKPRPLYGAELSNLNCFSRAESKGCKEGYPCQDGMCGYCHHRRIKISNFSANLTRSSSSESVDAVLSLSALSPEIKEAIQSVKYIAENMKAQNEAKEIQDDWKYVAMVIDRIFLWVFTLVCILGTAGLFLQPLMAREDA

| Structure (SMILES) | Ki [1] [nM] | EC50 [2, 13] [nM] | Ki [3] [nM] | Efficacy [4] [%] | Ki ([5]; read-out: Ki) [nM] | Ki [6] [nM] | Papp A→B [7] [×10⁻⁶ cm/s] | efflux ratio [8] | Ki [9] [nM] | EC50 [10] [nM] | Ki ([11]; hek293) | Efficacy [12] [%] | Ki ([11]; read-out: Ki) [nM] | EC50 ([2]; hek293, read-out: EC50) [nM] | EC50 ([2]; hek293) | Ki ([5]; hek293) |
| --- | --- | --- | --- | --- | --- | --- | --- | --- | --- | --- | --- | --- | --- | --- | --- | --- |
| c1cncc(-c2ccccc2O[C@@H]2C[C@H]3CNC[C@@H]2C3)c1 | 16.9 | 126 | 78.5 | 46 | > 614 | – | – | – | – | – | – | – | – | – | – | – |
| Cl.Oc1cncc(-c2ccccc2O[C@@H]2C[C@H]3CNC[C@@H]2C3)c1 | 2.02 | – | 7.16 | 52 | 149 | 8320 | 2.66 | 3.5 | > 15000 | 34.4 | Not Active | 70 | – | – | – | – |
| CS(=O)(=O)Nc1cncc(-c2ccccc2O[C@@H]2C[C@H]3CNC[C@@H]2C3)c1.Cl | 1.33 | 2.27 | 3.73 | 122 | 2900 | > 15000 | 0.84 | 4.65 | > 15000 | 2.92 | Not Active | 182 | – | – | – | – |
| CS(=O)(=O)Nc1cncc(-c2ccccc2O[C@H]2C[C@@H]3CNC[C@H]2C3)c1 | – | – | – | 120 | – | – | – | – | – | – | – | – | – | – | – | – |
| Oc1cncc(-c2ccccc2O[C@H]2C[C@@H]3CNC[C@H]2C3)c1 | – | – | – | 118 | – | – | – | – | – | – | – | – | – | – | – | – |
| Cl.c1cncc(-c2ccccc2O[C@H]2C[C@@H]3CNC[C@H]2C3)c1 (racemic) | 1.3 | 53 | 3.8 | – | > 1310 | – | 30.3 | 1.75 | – | 57 | – | 32.5 | 2160 | – | – | – |
| COc1ccncc1-c1ccccc1O[C@H]1C[C@@H]2CNC[C@H]1C2.Cl (racemic) | 0.882 | > 30000 | 1.77 | 49 | 477 | – | – | – | – | < 100 | – | 23 | – | – | – | – |
| COc1cncc(-c2ccccc2O[C@H]2C[C@@H]3CNC[C@H]2C3)c1.Cl (racemic) | 94.1 | 28.9 | 9.01 | 11 | > 309 | – | 24.4 | 1.76 | – | 32.7 | Not Active | <20 | – | – | – | – |
| Cl.Oc1ccncc1-c1ccccc1O[C@H]1C[C@@H]2CNC[C@H]1C2 (racemic) | 2.1 | 5 | 3.15 | 82 | > 419 | > 15300 | – | – | > 15000 | 16.3 | – | 91 | – | – | – | – |
| Cl.Oc1cncc(-c2ccccc2O[C@H]2C[C@@H]3CNC[C@H]2C3)c1 (racemic) | 0.186 | – | 0.425 | – | 255 | 5000 | 4.05 | 5.84 | 1580 | 2.59 | – | 75 | 1580 | 4.3 | – | – |
| Cl.Fc1ccncc1-c1ccccc1O[C@H]1C[C@@H]2CNC[C@H]1C2 (racemic) | 0.856 | 625 | 1.33 | 65 | – | – | 13.3 | 1.26 | – | 197 | – | – | – | – | – | – |
| Cl.Fc1cncc(-c2ccccc2O[C@H]2C[C@@H]3CNC[C@H]2C3)c1 (racemic) | 2.17 | 248 | 10.1 | 84.5 | > 1500 | > 16900 | 10 | 1.29 | > 13500 | 316 | Not Active | 45 | – | – | – | – |
| Cl.Nc1ccncc1-c1ccccc1O[C@H]1C[C@@H]2CNC[C@H]1C2 (racemic) | 0.957 | 265 | 2.05 | 97 | > 1040 | 4430 | – | – | – | 33.6 | – | 61 | – | – | – | – |
| Cl.Nc1cncc(-c2ccccc2O[C@H]2C[C@@H]3CNC[C@H]2C3)c1 (racemic) | 1.48 | 64.4 | 5.83 | 80.5 | > 575 | > 15000 | – | – | > 15000 | 33.9 | – | 107 | – | – | – | – |
| CS(=O)(=O)Nc1ccncc1-c1ccccc1O[C@H]1C[C@@H]2CNC[C@H]1C2.Cl (racemic) | 0.382 | 4.3 | 5.21 | 117 | 250 | > 15000 | – | – | 7590 | 112 | – | 48 | – | – | – | – |
| CS(=O)(=O)Nc1cncc(-c2ccccc2O[C@H]2C[C@@H]3CNC[C@H]2C3)c1.Cl (racemic) | 0.243 | 3.15 | 0.241 | – | > 424 | > 13500 | – | – | 4750 | 2.99 | – | 230 | – | – | – | – |
| CCS(=O)(=O)Nc1cncc(-c2ccccc2O[C@H]2C[C@@H]3CNC[C@H]2C3)c1.Cl (racemic) | 0.149 | 0.37 | 0.313 | 108 | > 604 | > 15000 | 0.44 | 0.93 | 9870 | 1.09 | Not Active | 182 | – | – | – | – |
| CC(=O)Nc1cncc(-c2ccccc2O[C@H]2C[C@@H]3CNC[C@H]2C3)c1.Cl (racemic) | 9.53 | 35.4 | 17.1 | 100 | > 615 | 530 | – | – | > 15000 | 252 | – | 51 | – | – | – | – |
| CS(=O)(=O)Nc1cncc(-c2ccccc2O[C@H]2C[C@@H]3CNC[C@H]2C3)c1 (racemic) | – | – | – | 116 | – | – | – | – | – | – | – | – | – | – | – | – |
| Oc1cncc(-c2ccccc2O[C@H]2C[C@@H]3CNC[C@H]2C3)c1 (racemic) | – | – | – | 117 | – | – | – | – | – | – | – | – | – | – | – | – |
| c1cncc(-c2ccccc2O[C@H]2C[C@@H]3CNC[C@H]2C3)c1 (racemic) | – | – | – | 45 | – | – | – | – | – | – | – | – | – | – | – | – |
| Cl.NC(=O)c1cncc(-c2ccccc2O[C@H]2C[C@@H]3CNC[C@H]2C3)c1 (stereo in doubt) | 3.79 | – | 12.5 | 102 | > 963 | > 15000 | – | – | > 15000 | 36.8 | – | 59.5 | – | – | Not Active | – |
| NC(=O)c1cncc(-c2ccccc2O[C@@H]2C[C@H]3CNC[C@@H]2C3)c1 (stereo in doubt) | 496 | – | 1130 | – | – | – | – | – | – | – | – | – | – | – | – | Not Active |
| CN1CCC[C@H]1c1cccnc1 [NICOTINE] | – | – | 168 | – | – | 1480 | – | – | – | – | – | – | – | – | – | – |
| c1cnc2cc3c(cc2n1)[C@@H]1CNC[C@H]3C1 [VARENICLINE] | – | – | 89 | – | – | 8200 | – | – | – | – | – | – | – | – | – | – |

From ChEMBL document CHEMBL1208792, “A novel series of [3.2.1] azabicyclic biaryl ethers as alpha3beta4 and alpha6/4beta4 nicotinic receptor agonists” (Bioorg Med Chem Lett, 2010)
